The test system of assay [1] is A549. The assay can be described thus: cells. The conditions noted are these: Homo sapiens, A549, 72 h.
Description: Cytotoxicity against human A549 cells assessed as reduction in cell viability incubated for 72 hrs by MTT assay
Assay [2] concerns NCI-H460. The assay can be described thus: cells. The conditions noted are these: Homo sapiens, NCI-H460, 72 h.
Description: Cytotoxicity against human H460 cells assessed as reduction in cell viability incubated for 72 hrs by MTT assay
The test system of assay [3] is HT-29. The experiment in a line: cells. Particulars: Homo sapiens, HT-29, 72 h.
Description: Cytotoxicity against human HT-29 cells assessed as reduction in cell viability incubated for 72 hrs by MTT assay
Another assay relates to MKN-45. The assay can be described thus: cells. Particulars: Homo sapiens, MKN-45, 72 h.
The subject of the next assay is U-87 MG. The experiment in a line: cells. Particulars: Homo sapiens, 72 h.
Assay [4] concerns the target Hepatocyte growth factor receptor (Homo sapiens, UniProt P08581). The assay can be described thus: Inhibition of cMET (unknown origin) using poly (Glu, Tyr) 4:1 as substrate incubated for 30 mins by HTRF assay.
Assay [5] has as its system A549. The assay can be described thus: Potency index, ratio of IC50 of foretinib to IC50 of compound for cytotoxicity against human A549 cells assessed as reduction in cell viability incubated for 72 hrs by MTT assay. Format: functional.
Assay [6] has as its system NCI-H460. The assay can be described thus: Potency index, ratio of IC50 of foretinib to IC50 of compound for cytotoxicity against human H460 cells assessed as reduction in cell viability incubated for 72 hrs by MTT assay. The format is functional.
The subject of assay [7] is HT-29. The experiment in a line: Potency index, ratio of IC50 of foretinib to IC50 of compound for cytotoxicity against human HT-29 cells assessed as reduction in cell viability incubated for 72 hrs by MTT assay. Format: functional.

SMILES strings stand for the structures.

Chain of Hepatocyte growth factor receptor (P08581 whole entry): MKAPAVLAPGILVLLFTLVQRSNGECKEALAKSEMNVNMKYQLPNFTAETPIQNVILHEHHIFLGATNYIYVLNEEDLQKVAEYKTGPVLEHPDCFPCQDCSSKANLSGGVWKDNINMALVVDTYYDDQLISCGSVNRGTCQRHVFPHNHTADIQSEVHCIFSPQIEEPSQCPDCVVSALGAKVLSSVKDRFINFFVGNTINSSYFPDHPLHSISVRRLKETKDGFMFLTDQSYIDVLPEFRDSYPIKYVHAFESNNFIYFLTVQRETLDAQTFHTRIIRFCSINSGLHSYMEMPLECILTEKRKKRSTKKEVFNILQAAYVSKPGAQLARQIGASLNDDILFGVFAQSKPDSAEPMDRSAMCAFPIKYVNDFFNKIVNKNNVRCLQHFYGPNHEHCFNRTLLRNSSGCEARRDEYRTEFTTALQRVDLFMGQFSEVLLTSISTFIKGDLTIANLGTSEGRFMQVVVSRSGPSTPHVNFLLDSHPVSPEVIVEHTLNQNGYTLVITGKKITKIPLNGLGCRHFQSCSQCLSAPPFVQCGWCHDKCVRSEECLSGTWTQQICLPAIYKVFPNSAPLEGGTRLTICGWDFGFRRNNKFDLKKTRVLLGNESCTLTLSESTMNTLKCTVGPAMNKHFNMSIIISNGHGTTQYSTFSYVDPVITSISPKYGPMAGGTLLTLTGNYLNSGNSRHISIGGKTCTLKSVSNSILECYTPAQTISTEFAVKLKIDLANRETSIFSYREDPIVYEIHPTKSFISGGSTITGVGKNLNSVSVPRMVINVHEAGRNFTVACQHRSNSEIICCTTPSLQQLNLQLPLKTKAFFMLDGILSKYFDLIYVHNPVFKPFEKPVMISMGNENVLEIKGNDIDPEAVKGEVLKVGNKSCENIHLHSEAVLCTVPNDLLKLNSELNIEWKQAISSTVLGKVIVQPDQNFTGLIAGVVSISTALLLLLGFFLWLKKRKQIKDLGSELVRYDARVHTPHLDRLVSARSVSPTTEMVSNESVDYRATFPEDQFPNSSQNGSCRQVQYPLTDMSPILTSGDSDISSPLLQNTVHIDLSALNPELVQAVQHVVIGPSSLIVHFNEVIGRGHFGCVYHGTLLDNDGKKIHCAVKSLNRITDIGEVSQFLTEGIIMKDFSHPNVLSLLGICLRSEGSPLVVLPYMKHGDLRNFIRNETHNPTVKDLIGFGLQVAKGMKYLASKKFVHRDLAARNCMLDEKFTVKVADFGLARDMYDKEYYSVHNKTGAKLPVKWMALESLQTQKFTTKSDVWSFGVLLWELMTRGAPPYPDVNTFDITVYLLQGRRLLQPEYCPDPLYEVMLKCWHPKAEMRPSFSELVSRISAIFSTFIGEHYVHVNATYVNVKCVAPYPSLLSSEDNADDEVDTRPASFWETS
Description for MKN-45: Cytotoxicity against human MKN45 cells assessed as reduction in cell viability incubated for 72 hrs by MTT assay
Description for U-87 MG: Cytotoxicity against human U87MG cells assessed as reduction in cell viability incubated for 72 hrs by MTT assay

As for `COc1cc2c(Oc3ccc(NC(=O)c4nc5ccccc5n(C5CCCC5)c4=O)cc3F)ccnc2cc1OCCCN1CCCCC1`, the IC50 in the assay on A549 [1] was found to be 4360 nM; with NCI-H460 [2] it was 3080 nM; in the assay on HT-29 [3] it was 4190 nM; in the assay with MKN-45, 1170 nM; in the assay with U-87 MG, 5210 nM.
For `COc1cc2c(Oc3ccc(NC(=O)c4nc5ccccc5n(CCc5ccccc5)c4=O)cc3F)ccnc2cc1OCCCN1CCC(C)CC1`, in that order: 1920 nM, 1070 nM, 1410 nM, 650 nM and 2740 nM.
For `COc1cc2c(Oc3ccc(NC(=O)c4nc5ccccc5n(C5CCCC5)c4=O)cc3F)ccnc2cc1OCCCN1CCC(C)CC1`, in that order: 5790 nM, 2150 nM, 4430 nM, 3660 nM and 5390 nM.
In the case of `COc1cc2c(Oc3ccc(NC(=O)c4nc5ccccc5n(CCc5ccccc5)c4=O)cc3F)ccnc2cc1OCCCN1CCN(C)CC1`, the IC50 was 1040 nM in the assay with A549 [1]; 450 nM in the assay with NCI-H460 [2]; 960 nM with HT-29 [3]; 310 nM in the assay with MKN-45; 1260 nM in the assay on U-87 MG.
The corresponding values for `COc1ccc(CCn2c(=O)c(C(=O)Nc3ccc(Oc4ccnc5cc(OCCCN6CCC(C)CC6)c(OC)cc45)c(F)c3)nc3ccccc32)cc1` are 550 nM, 510 nM, 1220 nM, 410 nM and 2270 nM.
For `COc1cc2c(Oc3ccc(NC(=O)c4nc5ccccc5n(Cc5ccc(F)cc5)c4=O)cc3F)ccnc2cc1OCCCN1CCCCC1`, in that order: 1290 nM, 870 nM, 720 nM, 220 nM and 2120 nM.
Regarding `COc1cc2c(Oc3ccc(NC(=O)c4nc5ccccc5n(Cc5ccc(F)cc5)c4=O)cc3F)ccnc2cc1OCCCN1CCC(C)CC1`, the concentration for half-maximal inhibition (IC50) is 2.56 nM in [4]; 480 nM with A549 [1]; 620 nM with NCI-H460 [2]; 380 nM in the assay with HT-29 [3]; 250 nM with MKN-45; 1960 nM with U-87 MG.
Consider `COc1cc2c(Oc3ccc(NC(=O)c4nc5ccccc5n(Cc5ccc(F)cc5)c4=O)cc3F)ccnc2cc1OCCCN1CCN(C)CC1`, for which the half-maximal inhibitory concentration (IC50) was 2770 nM with A549 [1]; 2240 nM in the assay on NCI-H460 [2]; 1830 nM with HT-29 [3]; 230 nM with MKN-45; 1730 nM in the assay with U-87 MG.
`COc1ccc(CCn2c(=O)c(C(=O)Nc3ccc(Oc4ccnc5cc(OCCCN6CCOCC6)c(OC)cc45)c(F)c3)nc3ccccc32)cc1`: the half-inhibitory concentration (IC50) in the assay with A549 [1] turned out to be 6230 nM; in the assay on NCI-H460 [2], 2330 nM; in the assay on HT-29 [3], 4940 nM; with MKN-45, 230 nM; in the assay with U-87 MG it was 12800 nM.
The corresponding values for `COc1cc2c(Oc3ccc(NC(=O)c4nc5ccccc5n(CCc5ccccc5)c4=O)cc3F)ccnc2cc1OCCCN1CCOCC1` are 910 nM, 1590 nM, 350 nM, 780 nM and 1350 nM.
In the case of `COc1cc2c(Oc3ccc(NC(=O)c4nc5ccccc5n(C5CCCCC5)c4=O)cc3F)ccnc2cc1OCCCN1CCOCC1`, the “Ratio IC50” value in the assay with A549 [5], in the assay on NCI-H460 [6] and with HT-29 [7] was 5 throughout. The half-inhibitory concentration (IC50) in assay [4] came to 1.42 nM; in the assay on A549 [1] it was 390 nM; in the assay on NCI-H460 [2], 180 nM; in the assay with HT-29 [3] it was 380 nM; in the assay with MKN-45, 180 nM; in the assay on U-87 MG, 810 nM.
Consider `COc1ccc(CCn2c(=O)c(C(=O)Nc3ccc(Oc4ccnc5cc(OCCCN6CCCCC6)c(OC)cc45)c(F)c3)nc3ccccc32)cc1`, for which the IC50 in the assay on A549 [1] is 1010 nM; in the assay on NCI-H460 [2], 450 nM; in the assay with HT-29 [3], 940 nM; in the assay on MKN-45, 480 nM; in the assay with U-87 MG it was 1600 nM.
For `COc1cc2c(Oc3ccc(NC(=O)c4nc5ccccc5n(C5CCCC5)c4=O)cc3F)ccnc2cc1OCCCN1CCOCC1`, in that order: 2480 nM, 1670 nM, 4030 nM, 3500 nM and 2990 nM.
For `COc1cc2c(Oc3ccc(NC(=O)c4nc5ccccc5n(Cc5ccc(F)cc5)c4=O)cc3F)ccnc2cc1OCCCN1CCOCC1`, the half-inhibitory concentration (IC50) in the assay on A549 [1] was 2020 nM; with NCI-H460 [2] it was 930 nM; in the assay on HT-29 [3] it was 2380 nM; in the assay with MKN-45 it was 260 nM; with U-87 MG it was 650 nM.
For `COc1cc2c(Oc3ccc(NC(=O)c4nc5ccccc5n(C5CCCCC5)c4=O)cc3F)ccnc2cc1OCCCN1CCCCC1`, the IC50 was 810 nM in the assay on A549 [1]; 270 nM in the assay with NCI-H460 [2]; 270 nM in the assay on HT-29 [3]; 270 nM in the assay with MKN-45; 760 nM in the assay on U-87 MG.
Turning to `COc1cc2c(Oc3ccc(NC(=O)c4nc5ccccc5n(CCc5ccccc5)c4=O)cc3F)ccnc2cc1OCCCN1CCCCC1`, the IC50 in the assay with A549 [1] is 2360 nM; with NCI-H460 [2] it was 2110 nM; in the assay with HT-29 [3] it was 870 nM; in the assay on MKN-45 it was 180 nM; in the assay with U-87 MG, 3620 nM.
As to `COc1cc2c(Oc3ccc(NC(=O)c4nc5ccccc5n(C5CCCCC5)c4=O)cc3F)ccnc2cc1OCCCN1CCN(C)CC1`, the “Ratio IC50” value in the assay with A549 [5], in the assay on NCI-H460 [6] and in the assay with HT-29 [7] was 5 in each case. Besides, the IC50 was found to be 2.34 nM in [4]; 320 nM in the assay on A549 [1]; 230 nM with NCI-H460 [2]; 230 nM in the assay with HT-29 [3]; 230 nM in the assay with MKN-45; 560 nM in the assay on U-87 MG.
Consider `COc1cc2c(Oc3ccc(NC(=O)c4nc5ccccc5n(C5CCCC5)c4=O)cc3F)ccnc2cc1OCCCN1CCN(C)CC1`, for which the IC50 is 4370 nM in the assay on A549 [1]; 2110 nM with NCI-H460 [2]; 2490 nM in the assay on HT-29 [3]; 3720 nM in the assay on MKN-45; 1590 nM with U-87 MG.
For `COc1ccc(CCn2c(=O)c(C(=O)Nc3ccc(Oc4ccnc5cc(OCCCN6CCN(C)CC6)c(OC)cc45)c(F)c3)nc3ccccc32)cc1`, in that order: 1670 nM, 3300 nM, 790 nM, 4170 nM and more than 10000 nM.
For `COc1cc2c(Oc3ccc(NC(=O)c4nc5ccccc5n(Cc5ccccc5)c4=O)cc3F)ccnc2cc1OCCCN1CCOCC1`, in that order: 5330 nM, 6700 nM, 1120 nM, 2790 nM and 4280 nM.
Take `COc1cc2c(Oc3ccc(NC(=O)c4nc5ccccc5n(C5CCCCC5)c4=O)cc3F)ccnc2cc1OCCCN1CCC(C)CC1`: the IC50 in the assay on A549 [1] worked out at 1070 nM; with NCI-H460 [2], 250 nM; in the assay with HT-29 [3], 610 nM; with MKN-45 it was 250 nM; with U-87 MG it was 1670 nM.

For the origin of these results see ChEMBL document CHEMBL4406870, “Design, synthesis, and biological evaluation of 4-phenoxyquinoline derivatives as potent c-Met kinase inhibitor” (Bioorg Med Chem Lett, 2019).
